Results: ChEMBL document CHEMBL5321276, “Novel Benzimidazoles as Potent Small-Molecule Inhibitors and Degraders of V-Domain Ig Suppressor of T-Cell Activation (VISTA)” (J Med Chem, 2023)
pKd: −log10 of the molar value. Values belong to the molecule of their own block, whether it stands above or below them. Calls of active or inactive are those of the source. The rule behind the calls is not given here.

Assays:
[1] = Oral bioavailability in Sprague-Dawley rat at 25 mg/kg measured upto 24 hrs by LC-MS/MS analysis; format: ADME, organism-based; conditions: in vivo
HepG2 [2] = assay: Induction of autophagy in human HepG2 cells assessed as induction of VISTA degradation at 10 uM measured after 24 hrs in presence of chloroquine by Western blotting analysis; format: functional, cell-based
HepG2 [3] = assay: Induction of autophagy in human HepG2 cells assessed as induction of VISTA degradation at 10 uM measured after 24 hrs in presence of 3-MA by Western blotting analysis; format: functional, cell-based
MDA-MB-231 [4] = assay: Cytotoxicity against human MDA-MB-231 cells assessed as reduction in cell viability at 5 uM; format: toxicity, cell-based; conditions: mda-mb-231, 5 µM
CT26 [5] = assay: Antitumor activity against po dosed mouse CT26 cells implanted in BALB/c mouse assessed as increase in infiltration of CD8 positive cells in tumor administered once daily for 15 days by DAPI staining based fluorescent inverted microscopic analysis; format: functional, organism-based; conditions: dose 30-120 mg/kg, time 15.0 day
HepG2 [6] = assay: Induction of autophagy in human HepG2 cells assessed as induction of VISTA degradation measured after 24 hrs by Western blotting analysis; format: functional, cell-based; conditions: dose 5-10 µM
[7] = target: T1, V-type immunoglobulin domain-containing suppressor of T-cell activation (Mus musculus, UniProt Q9D659); assay: Binding affinity to mouse VISTA assessed as dissociation constant incubated for 10 mins by MST assay
T1 sequence (Q9D659 whole entry): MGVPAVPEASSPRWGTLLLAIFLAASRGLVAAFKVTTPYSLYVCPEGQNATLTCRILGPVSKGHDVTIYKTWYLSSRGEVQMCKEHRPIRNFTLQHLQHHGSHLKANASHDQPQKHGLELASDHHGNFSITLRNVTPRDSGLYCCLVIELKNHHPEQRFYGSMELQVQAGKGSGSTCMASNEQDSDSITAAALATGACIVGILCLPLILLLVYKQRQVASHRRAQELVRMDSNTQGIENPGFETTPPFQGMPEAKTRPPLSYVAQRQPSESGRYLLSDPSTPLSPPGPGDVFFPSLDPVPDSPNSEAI

CT26 [8] = assay: Antitumor activity against mouse CT26 cells implanted in BALB/c mouse assessed as tumor growth inhibition at 60 mg/kg, po administered once daily for 15 days; format: functional; conditions: CT26, 360 h, time 15 day, read-out: TGI
CT26 [9] = assay: Antitumor activity against mouse CT26 cells implanted in BALB/c mouse assessed as tumor shrinkage at 30 to 120 mg/kg, po administered once daily for 15 days by Hematoxylin and eosin based analysis; format: functional, organism-based; conditions: dose 30-120 mg/kg, time 15.0 day
[10] = target: T2, V-type immunoglobulin domain-containing suppressor of T-cell activation (Homo sapiens) (UniProt Q9H7M9); assay: Inhibition of Fc fused VISTA in CD3/CD28/CD2 T cell activator stimulated human PBMC cells assessed as induction of IFN-gamma secretion at 5 to 10 uM measured after 48 hrs by ELISA assay; format: cell-based; conditions: dose 5-10 µM
T2 sequence (whole entry): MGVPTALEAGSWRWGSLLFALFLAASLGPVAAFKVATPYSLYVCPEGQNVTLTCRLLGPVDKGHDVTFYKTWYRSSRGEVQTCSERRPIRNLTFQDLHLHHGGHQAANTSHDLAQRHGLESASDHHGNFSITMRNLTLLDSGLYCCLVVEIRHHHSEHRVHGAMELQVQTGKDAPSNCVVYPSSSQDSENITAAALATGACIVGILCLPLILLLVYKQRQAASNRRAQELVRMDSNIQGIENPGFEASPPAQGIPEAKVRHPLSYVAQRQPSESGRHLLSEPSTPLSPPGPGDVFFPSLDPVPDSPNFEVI

PBMC = assay: Cytotoxicity against human PBMC cells assessed as reduction in cell viability at 5 uM; format: toxicity, cell-based
CT26 [11] = assay: Antitumor activity against po dosed mouse CT26 cells implanted in BALB/c mouse assessed as reduction in tumor growth administered once daily for 15 days; format: functional, organism-based; conditions: dose 30-120 mg/kg, time 15.0 day
HepG2 [12] = assay: Induction of autophagy in human HepG2 cells assessed as induction of VISTA degradation at 10 uM measured after 24 hrs in presence of MG132 by Western blotting analysis; format: functional, cell-based
HepG2 [13] = assay: Induction of autophagy in human HepG2 cells assessed as induction of VISTA degradation at 10 uM measured after 24 hrs in presence of pepstatin A by Western blotting analysis; format: functional, cell-based
CT26 [14] = assay: Antitumor activity against mouse CT26 cells implanted in BALB/c mouse assessed as tumor growth inhibition at 30 mg/kg, po administered once daily for 15 days; format: functional; conditions: CT26, 360 h, time 15 day, read-out: TGI
MDA-MB-231 [15] = assay: Antitumor immunity against human MDA-MB-231 cells cocultured with CD3/CD28/CD2 T cell activator stimulated human PBMC cells assessed as reduction in cell growth by measuring LDH release pre-treated with compound for 2 hrs measured after 12 hrs; format: functional, cell-based; conditions: dose 0.313-5 µM, time 14.0 hrs
[16] = Toxicity in BALB/c mouse implanted with mouse CT26 cells assessed as reduction in body weight at 30 to 120 mg/kg, po administered once daily for 15 days; format: organism-based; conditions: in vivo, 360 h, dose 30-120 mg/kg, time 15 day
CT26 [17] = assay: Antitumor activity against mouse CT26 cells implanted in BALB/c mouse assessed as induction of VISTA degradation in tumor at 30 to 120 mg/kg, po administered once daily for 15 days by Western blotting analysis; format: functional, organism-based; conditions: dose 30-120 mg/kg, time 15.0 day
[18] = Toxicity in BALB/c mouse implanted with mouse CT26 cells assessed as mortality at 30 to 120 mg/kg, po administered once daily for 15 days; format: organism-based; conditions: in vivo, 360 h, dose 30-120 mg/kg, time 15 day
HepG2 [19] = assay: Induction of autophagy in human HepG2 cells harboring adenovirus-mCherry-GFP-LC3B assessed as increase in LC3 puncta accumulation measured after 24 hrs by inverted fluorescence microscopic analysis; format: functional, cell-based; conditions: dose 5-10 µM
HepG2 [20] = assay: Induction of autophagy in human HepG2 cells assessed as increase in LC3II expression at 10 uM measured after 24 hrs in presence of chloroquine by Western blotting analysis; format: functional, cell-based
HepG2 [21] = assay: Induction of autophagy in human HepG2 cells assessed as induction of VISTA degradation at 10 uM measured upto 4 hrs in presence of cycloheximide by Western blotting analysis; format: functional, cell-based
CT26 [22] = assay: Antitumor activity against mouse CT26 cells implanted in BALB/c mouse assessed as tumor growth delay at 30 to 120 mg/kg, po administered once daily for 15 days by Hematoxylin and eosin based analysis; format: functional, organism-based; conditions: dose 30-120 mg/kg, time 15.0 day
CT26 [23] = assay: Antitumor activity against mouse CT26 cells implanted in BALB/c mouse assessed as tumor growth inhibition at 120 mg/kg, po administered once daily for 15 days; format: functional; conditions: CT26, 360 h, time 15 day, read-out: TGI
HepG2 [24] = assay: Induction of autophagy in human HepG2 cells assessed as induction of VISTA degradation at 5 uM by Western blotting analysis; format: functional, cell-based
[25] = target: T3, V-type immunoglobulin domain-containing suppressor of T-cell activation (Homo sapiens, UniProt Q9H7M9); assay: Binding affinity to human VISTA assessed as dissociation constant by SPR assay
T3 sequence (Q9H7M9 whole entry): T2 sequence (whole entry)

CT26 [26] = assay: Antitumor activity against mouse CT26 cells implanted in BALB/c mouse assessed as reduction in tumor growth at 60 mg/kg, po administered once daily for 15 days; format: functional, organism-based; conditions: time 15.0 day

SMILES: Cc1c(-c2ccccc2)ccc2nc(-c3cccc(CNCCO)c3)[nH]c12
bioavailability [1]: 16%
Activity (HepG2 [2]): inactive
Activity (HepG2 [3]): inactive
Activity (MDA-MB-231 [4]): Non-Toxic
Activity (CT26 [5]): Dose-Dependent Effect
Activity (HepG2 [6]): Dose-Dependent Effect
pKd [7]: 5.17
inhibition in vivo at 60 mg/kg (CT26 [8]): 41%
Activity (CT26 [9]): Active
inhibition [10]: Active
Activity (PBMC): Non-Toxic
Activity (CT26 [11]): Dose-Dependent Effect
Activity (HepG2 [12]): Active
Activity (HepG2 [13]): inactive
inhibition in vivo at 30 mg/kg (CT26 [14]): 29%
Activity (MDA-MB-231 [15]): Dose-Dependent Effect
Activity [16]: Non-Toxic
Activity (CT26 [17]): Active
Activity [18]: Non-Toxic
Activity (HepG2 [19]): Dose-Dependent Effect
Activity (HepG2 [20]): Active
Activity (HepG2 [21]): Active
Activity (CT26 [22]): Active
inhibition in vivo at 120 mg/kg (CT26 [23]): 59%
Activity (HepG2 [24]): Active

SMILES: CC(=O)NCCNCc1cccc(-c2nc3cccc(C)c3[nH]2)c1
pKd [25]: 5.51

SMILES: C[C@@H](O)[C@H](NC(=O)N[C@@H](CC(N)=O)c1nc([C@@H](N)CO)no1)C(=O)O
Activity (CT26 [26]): Active
Activity (HepG2 [24]): inactive

SMILES: Cc1c(-c2ccccc2)ccc2nc(-c3cccc(CNC[C@H](O)CC(=O)O)c3)[nH]c12
pKd [25]: 5.75

SMILES: Cc1c(-c2ccccc2)ccc2nc(-c3cccc(CNCC(=O)O)c3)[nH]c12
pKd [25]: 5.98

SMILES: CC(=O)NCCNCc1ccc(-c2nc3ccc(-c4ccccc4)c(C)c3[nH]2)cc1
pKd [25]: 6.43
inhibition [10]: Active

SMILES: CC(=O)NCCNCc1cccc(-c2nc3ccc(Br)c(C)c3[nH]2)c1
pKd [25]: 5.94

SMILES: Cc1c(-c2ccccc2)ccc2nc(-c3cccc(CNCCN)c3)[nH]c12
pKd [25]: 6.31

More lines, now with the values ahead:

pKd [25]: 6.73
inhibition [10]: Active
SMILES: CC(=O)NCCNCc1cccc(-c2nc3ccc(-c4ccccc4)c(C)c3[nH]2)c1

pKd [25]: 5.95
SMILES: Cc1c(-c2ccccc2)ccc2nc(-c3ccc(CNCCO)cc3)[nH]c12

pKd [25]: 6.12
SMILES: Cc1c(-c2ccccc2)ccc2nc(-c3cccc(CNCC[C@@H]4CCC(=O)N4)c3)[nH]c12
